Source: patent publication US20260274892A1, “MACROCYCLIC BROAD SPECTRUM ANTIBIOTICS” (RQx Pharmaceuticals, Inc., priority 2017, published 2026)
Each block holds one compound with its values, some of them ahead of it.

Test system: Escherichia coli ATCC 25922
Test: Minimum inhibitory concentration (MIC), CLSI broth micro-dilution, E. coli
Format: cell-based
Conditions: Escherichia coli
Method in brief: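 Colonies grown 20 h at 35° C on Trypticase Soy agar (MRSA) or Luria agar (E. coli) were suspended in cation-adjusted Mueller Hinton broth with 0.002% Tween-80. Suspensions were added at OD600 0.0005 to 10-point twofold compound dilutions, then incubated 22 h at 35° C.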

[1] = ATCC25922, 22 h, Table 6, cation adjusted Mueller Hinton Broth + 0.002% Tween-80, 35° C.
[2] = ATCC25922, Table 6, cation adjusted Mueller Hinton Broth + 0.002% Tween-80, 35° C., 22 hours
[3] = ATCC25922, 22 h, Table 7, cation adjusted Mueller Hinton Broth + 0.002% Tween-80, 35° C.

SMILES: Cc1nc(-c2ccc(OC3CCCCCC3)cc2)nc(N)c1C(=O)N[C@@H](CCN)C(=O)N(C)[C@@H]1C(=O)N[C@@H](C)C(=O)N[C@H](C(=O)NCC#N)Cc2ccc(OCCN)c(c2)-c2cc1ccc2OCCN (racemic) [Compound 532, rac-(8S,11S,14S)-3,18-bis(2-aminoethoxy)-N-(cyanomethyl)-11-methyl-14-[methyl-[rac-(2S)-4-amino-2-[[4-amino-2-[4-(cycloheptoxy)phenyl]-6-methyl-pyrimidine-5-carbonyl]amino]butanoyl]amino]-10,13-dioxo-9,12-diazatricyclo[13.3.1.12,6]icosa-1(18),2(20),3,5,15(19),16-hexaene-8-carboxamide]
MIC [1]: 0.063 µM

SMILES: Cc1nc(-c2ccc(C(C)(C)C)cc2)nc(C)c1C(=O)N[C@@H](CNS(N)(=O)=O)C(=O)N(C)[C@@H]1C(=O)N[C@@H](C)C(=O)N[C@H](C(=O)NCC#N)Cc2ccc(OC[C@H](O)CN)c(c2)-c2cc1cc(OC[C@H](O)CN)c2O (racemic) [Compound 582, rac-(8S,11S,14S)-N-(cyanomethyl)-18-hydroxy-11-methyl-14-[methyl-[rac-(2S)-2-[[2-(4-tert-butylphenyl)-4,6-dimethyl-pyrimidine-5-carbonyl]amino]-3-(sulfamoylamino)propanoyl]amino]-10,13-dioxo-3,17-bis[rac-(2R)-3-amino-2-hydroxy-propoxy]-9,12-diazatricyclo[13.3.1.12,6]icosa-1(18),2(20),3,5,15(19),16-hexaene-8-carboxamide]
MIC (ATCC25922, Table 7, cation adjusted Mueller Hinton Broth + 0.002% Tween-80, 35° C., 22 hours): 0.75 µM

MIC [1]: 1.5 µM
SMILES: Cc1nc(-c2cnc(C(C)(C)C)nc2)nc(C)c1C(=O)N[C@@H](CCN)C(=O)N(C)[C@@H]1C(=O)N[C@@H](C)C(=O)N[C@H](C(=O)NCC#N)Cc2ccc(OCCN)c(c2)-c2cc1ccc2OCCN (racemic) [Compound 540, rac-(8S,11S,14S)-3,18-bis(2-aminoethoxy)-N-(cyanomethyl)-11-methyl-14-[methyl-[rac-(2S)-4-amino-2-[[2-(2-tert-butylpyrimidin-5-yl)-4,6-dimethyl-pyrimidine-5-carbonyl]amino]butanoyl]amino]-10,13-dioxo-9,12-diazatricyclo[13.3.1.12,6]icosa-1(18),2(20),3,5,15(19),16-hexaene-8-carboxamide]

SMILES: CNC(=N)NCCOc1ccc2cc1-c1cc(ccc1OCCNC(=N)NC)[C@H](N(C)C(=O)[C@H](CCN)NC(=O)c1c(C)nc(-c3ccc(C(C)(C)C)cc3)nc1C)C(=O)N[C@@H](C)C(=O)N[C@H](C(=O)NCC#N)C2 (racemic) [Compound 441, rac-(8S,11S,14S)-N-(cyanomethyl)-11-methyl-3,18-bis[2-[(N-methylcarbamimidoyl)amino]ethoxy]-14-[methyl-[rac-(2S)-4-amino-2-[[2-(4-tert-butylphenyl)-4,6-dimethyl-pyrimidine-5-carbonyl]amino]butanoyl]amino]-10,13-dioxo-9,12-diazatricyclo[13.3.1.12,6]icosa-1(18),2(20),3,5,15(19),16-hexaene-8-carboxamide]
MIC [2]: 0.38 µM

MIC [3]: 0.063 µM
SMILES: Cc1nc(-c2ccc(C(C)(C)C)cc2)nc(C)c1C(=O)N[C@@H](CCN)C(=O)N(C)[C@@H]1C(=O)N[C@@H](C)C(=O)N[C@H](C(=O)NCC#N)Cc2ccc(O)c(c2)-c2cc1ccc2OCCNCCCN (racemic) [Compound 602, rac-(8S,11S,14S)-18-[2-(3-aminopropylamino)ethoxy]-N-(cyanomethyl)-3-hydroxy-11-methyl-14-[methyl-[rac-(2S)-4-amino-2-[[2-(4-tert-butylphenyl)-4,6-dimethyl-pyrimidine-5-carbonyl]amino]butanoyl]amino]-10,13-dioxo-9,12-diazatricyclo[13.3.1.12,6]icosa-1(18),2(20),3,5,15(19),16-hexaene-8-carboxamide]

MIC [1]: 1 µM
SMILES: Cc1nc(-c2ccc(C(C)(C)C)cc2)nc(C)c1C(=O)N[C@@H](CCN)C(=O)N(C)[C@@H]1C(=O)N[C@@H](C)C(=O)N[C@H](C(=O)NCC#N)Cc2ccc3c(c2)-c2cc1ccc2OCC(O)(CN)CO3 (some centres unmarked) [Compound 440]

MIC [1]: 0.25 µM
SMILES: Cc1nc(-c2ccc(C(C)(C)C)cc2)cc(N)c1C(=O)N[C@@H](CCN)C(=O)N(C)[C@@H]1C(=O)N[C@@H](C)C(=O)N[C@H](C(=O)NCC#N)Cc2ccc(OCCN)c(c2)-c2cc1ccc2O (racemic) [Compound 557, rac-(8S,11S,14S)-3-(2-aminoethoxy)-N-(cyanomethyl)-18-hydroxy-11-methyl-14-[methyl-[rac-(2S)-4-amino-2-[[4-amino-6-(4-tert-butylphenyl)-2-methyl-pyridine-3-carbonyl]amino]butanoyl]amino]-10,13-dioxo-9,12-diazatricyclo[13.3.1.12,6]icosa-1(18),2(20),3,5,15(19),16-hexaene-8-carboxamide]

MIC [1]: 0.5 µM
SMILES: Cc1nc(-c2ccc(C3CCCC3)cc2)nc(C)c1C(=O)N[C@@H](CCN)C(=O)N(C)[C@@H]1C(=O)N[C@@H](C)C(=O)N[C@H](C(=O)NCC#N)Cc2ccc(OCCN)c(c2)-c2cc1ccc2OCCN (racemic) [Compound 302, rac-(8S,11S,14S)-3,18-bis(2-aminoethoxy)-N-(cyanomethyl)-11-methyl-14-[methyl-[rac-(2S)-4-amino-2-[[2-(4-cyclopentylphenyl)-4,6-dimethyl-pyrimidine-5-carbonyl]amino]butanoyl]amino]-10,13-dioxo-9,12-diazatricyclo[13.3.1.12,6]icosa-1(18),2(20),3,5,15(19),16-hexaene-8-carboxamide]

SMILES: Cc1nc(-c2ccc(C(C)(C)C)cc2)ncc1C(=O)N[C@@H](CCN)C(=O)N(C)[C@@H]1C(=O)N[C@@H](C)C(=O)N[C@H](C(=O)NCC#N)Cc2ccc(OCCN(C)C)c(c2)-c2cc1ccc2OCCN(C)C (racemic) [Compound 442, rac-(8S,11S,14S)-N-(cyanomethyl)-3,18-bis[2-(dimethylamino)ethoxy]-11-methyl-14-[methyl-[rac-(2S)-4-amino-2-[[2-(4-tert-butylphenyl)-4-methyl-pyrimidine-5-carbonyl]amino]butanoyl]amino]-10,13-dioxo-9,12-diazatricyclo[13.3.1.12,6]icosa-1(18),2(20),3,5,15(19),16-hexaene-8-carboxamide]
MIC [2]: 0.91 µM

SMILES: CC(C)Cc1ccc(-c2ncc(C(=O)N[C@@H](CCN)C(=O)N(C)[C@@H]3C(=O)N[C@@H](C)C(=O)N[C@H](C(=O)NCC#N)Cc4ccc(OCCN)c(c4)-c4cc3ccc4OCCN)c(C(F)F)n2)cc1 (racemic) [Compound 418, rac-(8S,11S,14S)-3,18-bis(2-aminoethoxy)-N-(cyanomethyl)-11-methyl-14-[methyl-[rac-(2S)-4-amino-2-[[4-(difluoromethyl)-2-(4-isobutylphenyl)pyrimidine-5-carbonyl]amino]butanoyl]amino]-10,13-dioxo-9,12-diazatricyclo[13.3.1.12,6]icosa-1(18),2(20),3,5,15(19),16-hexaene-8-carboxamide]
MIC [2]: 0.064 µM

MIC [3]: 0.25 µM
SMILES: Cc1nc(-c2ccc(C(C)(C)C)cc2)nc(C)c1C(=O)N[C@@H](CCN)C(=O)N(C)[C@@H]1C(=O)N[C@@H](C)C(=O)N[C@H](C(=O)NCC#N)Cc2cc(F)c(O)c(c2)-c2cc1ccc2OCCN [Compound 560, (4S,7S,10S)-10-((S)-4-amino-2-(2-(4-(tert-butyl)phenyl)-4,6-dimethylpyrimidine-5-carboxamido)-N-methylbutanamido)-1^6-(2-aminoethoxy)-N-(cyanomethyl)-2^5-fluoro-2^6-hydroxy-7-methyl-6,9-dioxo-5,8-diaza-1,2(1,3)-dibenzenacyclodecaphane-4-carboxamide]

MIC [3]: 0.33 µM
SMILES: Cc1nc(-c2ccc(C(C)(C)C)cc2)nc(C)c1C(=O)N[C@@H](CCN)C(=O)N(C)[C@@H]1C(=O)N[C@@H](C)C(=O)N[C@H](C(=O)NCC#N)Cc2ccc(O)c(c2)-c2cc1ccc2OCCNC(=N)N (racemic) [Compound 595, rac-(8S,11S,14S)-N-(cyanomethyl)-18-(2-guanidinoethoxy)-3-hydroxy-11-methyl-14-[methyl-[rac-(2S)-4-amino-2-[[2-(4-tert-butylphenyl)-4,6-dimethyl-pyrimidine-5-carbonyl]amino]butanoyl]amino]-10,13-dioxo-9,12-diazatricyclo[13.3.1.12,6]icosa-1(18),2(20),3,5,15(19),16-hexaene-8-carboxamide]

MIC [1]: 4 µM
SMILES: CCCCc1ccc(-c2cc(N)c(C(=O)N[C@@H](CCN)C(=O)N(C)[C@@H]3C(=O)N[C@@H](C)C(=O)N[C@H](C(=O)NCC#N)Cc4ccc(OCCN)c(c4)-c4cc3ccc4OCCN)c(C)n2)nc1 (racemic) [Compound 529, rac-(8S,11S,14S)-3,18-bis(2-aminoethoxy)-N-(cyanomethyl)-11-methyl-14-[methyl-[rac-(2S)-4-amino-2-[[4-amino-6-(5-butyl-2-pyridyl)-2-methyl-pyridine-3-carbonyl]amino]butanoyl]amino]-10,13-dioxo-9,12-diazatricyclo[13.3.1.12,6]icosa-1(18),2(20),3,5,15(19),16-hexaene-8-carboxamide]

MIC [3]: 0.047 µM
SMILES: Cc1nc(-c2ccc(C(C)(C)C)cc2)nc(C)c1C(=O)N[C@@H](CCN)C(=O)N(C)[C@@H]1C(=O)N[C@@H](C)C(=O)N[C@H](C(=O)NCC#N)Cc2ccc(O)c(c2)-c2cc1cc(OCCN)c2OCCN [Compound 633, (8S,11S,14S)-14-[[(2S)-4-amino-2-[[2-(4-tert-butylphenyl)-4,6-dimethyl-pyrimidine-5-carbonyl]amino]butanoyl]-methyl-amino]-17,18-bis(2-aminoethoxy)-N-(cyanomethyl)-3-hydroxy-11-methyl-10,13-dioxo-9,12-diazatricyclo[13.3.1.12,6]icosa-1(18),2(20),3,5,15(19),16-hexaene-8-carboxamide]
